Measurements: patent US20050187194A1, “Preventive agents for diabetes mellitus” (SANKYO COMPANY LIMITED, priority 2002, published 2005)

What was measured:
GK rats [1] = test: Preventative effects on diabetes mellitus in GK rats prior to the crisis of diabetes (drug mixed in food, 8 weeks); type: in vivo, rat
Source text: 6-week-old GK rats (Charles River Japan, Inc.) which were prior to the crisis of diabetes mellitus, were used. Compound A was mixed with food powder for the rat (F2, Funabashi Farm Co.,) at concentrations of 0.04%, 0.2% and 1.0% (w/w) and was orally administered to 4-6 rats per group for 8 weeks ad libitum (the mean amount of food intake per rat: 17.3 g/day).
The rats in the control group were fed with only food powder.
Blood from each rat was collected from the tail vein every 2 weeks, and the blood glucose level, plasma lactate level and plasma triglyceride level were determined. Blood glucose level was determined by electric potential measurement method based on glucose oxidase immobilized electrode using Glucoloader GXT (A&T Corp.). Plasma lactate level was determined using a spectrophotometric method with Lactate Reagent (Sigma-Aldrich Japan K. K.), and plasma triglyceride level was determined using a spectrophotometric method with Triglyceride E Test Wako (Wako Pure Chemical Industries, Ltd.). When the blood was collected after the drug administration period and the drug withdrawal period for 2 weeks, glycosylated hemoglobin ratio was also determined with DCA-2000 (Bayer Medical Co., Ltd.).

GK rats [2] = test: Improving effects on impaired glucose tolerance: oral glucose load in fasted GK rats, AUC of blood glucose; type: in vivo, rat; settings: 2 g/kg glucose 1 hour later
Description: 6-week-old GK rats of (Charles River Japan, Inc.) which show IGT symptoms, but not diabetes mellitus, were fasted overnight. Compound A was orally administered at dosages of 10, 20 or 40 mg/kg. Two gram per kilogram of 50% (w/w) glucose solution was orally administered 1 hour after the administration of Compound A. The rats in the control group were administered orally 2 g/kg of 50% (w/w) glucose solution only.
The blood was collected from the tail vein just before and 0.5, 1, 2 and 4 hours after the glucose administration. Blood glucose level was determined by electric potential measurement method based on a glucose oxidase immobilized electrode using Glucoloader GXT (A&T Corp.).
On the abscissas, the time after the administration of Compound A was plotted, and on the ordinate, the blood glucose level of each individual was plotted. Each point was drawn with a straight line. The areas under the curves (AUCs) for the blood glucose levels of the graph obtained were calculated.
Using the areas under the curves (AUCs) for the blood glucose levels, the average value and standard error of each group were calculated. […]
The blood was collected from the tail vein just before and 0.5, 1 and 2 hours after the glucose administration. Blood glucose level was determined by electric potential measurement method based on a glucose oxidase immobilized electrode using Glucoloader GXT (A&T Corp.). […]

patients = patients treated with metformin; N Engl J Med 346, 393-403 (2002); cited from earlier work

CCOC(=O)[C@H](C)NP(=O)(N[C@@H](C)C(=O)OCC)c1ccc(-c2nc(N)sc2CC(C)C)o1 [Compound A, 2-amino-5-isobutyl-4-{2-[5-(N,N′-bis((S)-1-ethoxycarbonyl)ethyl)phosphonamido]furanyl}thiazole]
increase in the blood glucose level (GK rats [1]; 6-week-old GK rats, 0.04%, 0.2% and 1.0% (w/w) in food, oral, 8 weeks, FIG. 1): inhibited in a dose-dependent manner | glycosylated hemoglobin ratio (GK rats [1]; GK rats, after 8 weeks of 0.04%, 0.2% and 1.0% (w/w) in food, FIG. 2): decreased in a dose-dependent manner | gastrointestinal symptoms such as diarrhea (GK rats [1]; GK rats, all the groups examined): no animal suffered gastrointestinal symptoms such as diarrhea | blood glucose level after the drug administration period was terminated (GK rats [1]; GK rats, drug withdrawal period 2 weeks, FIG. 1): attained the same maximum level as that in the control group | glycosylated hemoglobin ratio after withdrawal of administration (GK rats [1]; GK rats, drug withdrawal period 2 weeks, FIG. 2): increased to the same level as that in the control group | plasma triglyceride level (GK rats [1]; GK rats, during the administration period, FIG. 3): not increased as much as those in the control rats or was prevented from increase | plasma lactate level (GK rats [1]; GK rats, during the administration period, versus control group, FIG. 4): not significantly different from the control group | AUCs of the blood glucose levels (GK rats [2]; GK rats fasted overnight, 10, 20 or 40 mg/kg oral, blood to 4 hours, FIG. 5): decreased by the treatment of Compound A in a dose-dependent manner

CCOc1cc2ncnc(Nc3cccc(-c4csc(C)n4)c3)c2cc1OCC [Compound B, (6,7-diethoxy-quinazolin-4-yl)-[3-(2-methyl-thiazol-4-yl)phenyl]amine]
AUCs of the blood glucose levels (GK rats [2]; GK rats fasted overnight, 100 mg/kg or 300 mg/kg oral, blood to 2 hours, FIG. 6): decreased by the treatment of Compound B in a dose-dependent manner

CN(C)C(=N)N=C(N)N [metformin]
patients with gastrointestinal symptoms such as diarrhea (patients): approximately 80%
